A word on the IC50: it is the concentration needed to halve the response being measured.

In US11384055B2 (BIOMARIN PHARMACEUTICAL INC., priority 2017, dated 2022) one finds IC50 data, which are given here for 25 compounds.

SMILES strings stand for the structures. Read-outs that look alike come from different tables or passages of the source.

The test concerns the target T1, Human GO (Homo sapiens, UniProt Q9UJM8).
T1 construct: purchased Novus Biologicals NBP1-72412
T1 sequence (Q9UJM8 1-370): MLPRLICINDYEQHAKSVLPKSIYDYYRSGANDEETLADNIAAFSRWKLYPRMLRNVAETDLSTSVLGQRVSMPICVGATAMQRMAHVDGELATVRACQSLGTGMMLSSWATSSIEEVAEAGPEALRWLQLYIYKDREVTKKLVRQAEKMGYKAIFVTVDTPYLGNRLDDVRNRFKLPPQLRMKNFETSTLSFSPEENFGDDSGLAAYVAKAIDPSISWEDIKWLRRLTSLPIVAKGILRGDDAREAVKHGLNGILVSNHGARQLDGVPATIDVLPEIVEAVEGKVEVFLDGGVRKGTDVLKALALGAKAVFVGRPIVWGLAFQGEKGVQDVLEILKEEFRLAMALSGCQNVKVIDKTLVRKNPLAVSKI
The test can be described thus: GO enzymatic assay (coupled fluorescence/HRP assay, glycolate substrate). In kind it is biochemical. The settings on record: read-out: Range (range of IC50 values calculated from the enzymatic assays). The essentials: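 Coupled HRP/fluorescence read-out of glycolate oxidation by human GO in 50 mM potassium phosphate buffer (pH 7). Inhibitors added across a concentration range.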

Consider `N#Cc1ccc(N2CCC(Sc3nn[nH]c3C(=O)O)CC2)cc1` [Compound 344, 4-((1-(4-cyanophenyl)piperidin-4-yl)thio)-1H-1,2,3-triazole-5-carboxylic acid 2,2,2-trifluoroacetate], for which the IC50 (Table 2) is below 0.1 µM.
Still for that read-out and setting: the figure for `O=C(O)c1[nH]nnc1S[C@H]1CC[C@@H](c2ccc(Cl)c(Cl)c2)CC1` [Compound 345, 4-(((cis)-4-(3,4-dichlorophenyl)cyclohexyl)thio)-1H-1,2,3-triazole-5-carboxylic acid 2,2,2-trifluoroacetate] is below 0.1 µM; for `O=C(O)c1[nH]nnc1SC1CCN(c2ccc(OC(F)(F)F)c(Cl)c2)CC1` [Compound 346, 4-((1-(3-chloro-4-(trifluoromethoxy)phenyl)piperidin-4-yl)thio)-1H-1,2,3-triazole-5-carboxylic acid] it is below 0.1 µM; for `O=C(O)c1[nH]nnc1S[C@H]1CC[C@@H](c2ccc(N3CCCC3)cc2)CC1` [Compound 347, 4-(((cis)-4-(4-(pyrrolidin-1-yl)phenyl)cyclohexyl)thio)-1H-1,2,3-triazole-5-carboxylic acid 2,2,2-trifluoroacetate] it is below 0.1 µM.
On the same count and under the same terms, the figure for `O=C(O)c1[nH]nnc1S[C@H]1CC[C@@H](c2ccc(OC(F)(F)F)cc2)CC1` [Compound 348, 4-(((cis)-4-(4-(trifluoromethoxy)phenyl)cyclohexyl)thio)-1H-1,2,3-triazole-5-carboxylic acid] is below 0.1 µM; for `CC1CCCCN1c1ccc(-c2ccc(Sc3nn[nH]c3C(=O)O)cc2)cc1` (stereo not shown) [Compound 349, 4-((4′-(2-methylpiperidin-1-yl)-[1,1′-biphenyl]-4-yl)thio)-1H-1,2,3-triazole-5-carboxylic acid 2,2,2-trifluoroacetate] it is below 0.1 µM.
As to `O=C(O)c1[nH]nnc1CSC1CCN(c2cc(Cl)cc(Cl)c2)CC1` [Compound 350, 4-(((1-(3,5-dichlorophenyl)piperidin-4-yl)thio)methyl)-1H-1,2,3-triazole-5-carboxylic acid 2,2,2-trifluoroacetate], the IC50 (Table 2) is below 0.1 µM.
On the same count and under the same terms, the same measure for `O=C(O)c1[nH]nnc1Sc1cccc(OC2CCCC2)c1` [Compound 351, 4-((3-(cyclopentyloxy)phenyl)thio)-1H-1,2,3-triazole-5-carboxylic acid 2,2,2-trifluoroacetate]: 0.1 to 1 µM; for `N#Cc1ccc([C@H]2CC[C@@H](Sc3nn[nH]c3C(=O)O)CC2)cc1` [Compound 352, 4-(((cis)-4-(4-cyanophenyl)cyclohexyl)thio)-1H-1,2,3-triazole-5-carboxylic acid]: below 0.1 µM; for `O=C(O)c1[nH]nnc1Oc1ccc(Cl)c(OCC2CCCC2)c1` [Compound 353, 4-(4-chloro-3-(cyclopentylmethoxy)phenoxy)-1H-1,2,3-triazole-5-carboxylic acid 2,2,2-trifluoroacetate]: below 0.1 µM.
The same measure, in the same setting: the figure for `O=C(O)c1[nH]nnc1OC1CCN(c2cc(Cl)cc(OC(F)(F)F)c2)CC1` [Compound 354, 4-((1-(3-chloro-5-(trifluoromethoxy)phenyl)piperidin-4-yl)oxy)-1H-1,2,3-triazole-5-carboxylic acid] is below 0.1 µM; for `O=C(O)c1[nH]nnc1O[C@H]1CC[C@@H](c2cc(Cl)cc(OC(F)(F)F)c2)CC1` [Compound 355, 4-(((cis)-4-(3-chloro-5-(trifluoromethoxy)phenyl)cyclohexyl)oxy)-1H-1,2,3-triazole-5-carboxylic acid] it is below 0.1 µM; for `O=C(O)c1[nH]nnc1O[C@H]1CC[C@@H](c2ccc(N3CCCC3)cc2)CC1` [Compound 356, 4-(((cis)-4-(4-(pyrrolidin-1-yl)phenyl)cyclohexyl)oxy)-1H-1,2,3-triazole-5-carboxylic acid 2,2,2-trifluoroacetate] it is below 0.1 µM.
With `O=C(O)c1[nH]nnc1Oc1cc(OCC2CCCC2)ccc1Cl` [Compound 357, 4-(2-chloro-5-(cyclopentylmethoxy)phenoxy)-1H-1,2,3-triazole-5-carboxylic acid], under “Table 2”, the IC50 is below 0.1 µM.
In the case of `O=C(O)c1[nH]nnc1Oc1cc(Cl)cc(OC(F)(F)F)c1` [Compound 358, 4-(3-chloro-5-(trifluoromethoxy)phenoxy)-1H-1,2,3-triazole-5-carboxylic acid], under “Table 2”, the IC50 was below 0.1 µM.
The same measure, in the same setting: the figure for `N#Cc1ccc(N2CCC(Oc3nn[nH]c3C(=O)O)CC2)cc1` [Compound 359, 4-((1-(4-cyanophenyl)piperidin-4-yl)oxy)-1H-1,2,3-triazole-5-carboxylic acid 2,2,2-trifluoroacetate] is below 0.1 µM; for `O=C(O)c1[nH]nnc1O[C@H]1CC[C@@H](c2ccc(OC(F)(F)F)c(Cl)c2)CC1` [Compound 360, 4-(((cis)-4-(3-chloro-4-(trifluoromethoxy)phenyl)cyclohexyl)oxy)-1H-1,2,3-triazole-5-carboxylic acid] it is below 0.1 µM; for `O=C(O)c1[nH]nnc1OC1CCN(c2ccc(OC(F)(F)F)c(Cl)c2)CC1` [Compound 361, 4-((1-(3-chloro-4-(trifluoromethoxy)phenyl)piperidin-4-yl)oxy)-1H-1,2,3-triazole-5-carboxylic acid] it is below 0.1 µM.
Turning to `O=C(O)c1[nH]nnc1Oc1ccc(Cl)c(OCc2ccc(F)cc2)c1` [Compound 362, 4-(4-chloro-3-((4-fluorobenzyl)oxy)phenoxy)-1H-1,2,3-triazole-5-carboxylic acid], under “Table 2”, the IC50 is below 0.1 µM.
The same measure, in the same setting: the same measure for `NC(=O)c1ccc([C@H]2CC[C@@H](Oc3nn[nH]c3C(=O)O)CC2)cc1` [Compound 363, 4-(((cis)-4-(4-carbamoylphenyl)cyclohexyl)oxy)-1H-1,2,3-triazole-5-carboxylic acid 2,2,2-trifluoroacetate]: below 0.1 µM.
Same read-out and setting: the figure for `NC(=O)c1ccc([C@H]2CC[C@H](Oc3nn[nH]c3C(=O)O)CC2)cc1` [Compound 364, 4-(((trans)-4-(4-carbamoylphenyl)cyclohexyl)oxy)-1H-1,2,3-triazole-5-carboxylic acid 2,2,2-trifluoroacetate] is below 0.1 µM.
Take `N#Cc1ccc([C@H]2CC[C@@H](Oc3nn[nH]c3C(=O)O)CC2)cc1` [Compound 365, 4-(((cis)-4-(4-cyanophenyl)cyclohexyl)oxy)-1H-1,2,3-triazole-5-carboxylic acid]: the concentration for half-maximal inhibition (IC50) (Table 2) is below 0.1 µM.
For the compound `O=C(O)c1[nH]nnc1OC(Cc1ccc(-c2ccc(OC(F)(F)F)cc2)cc1)Cc1ccc(-c2ccc(OC(F)(F)F)cc2)cc1` [Compound 366, 4-((1,3-bis(4′-(trifluoromethoxy)-[1,1′-biphenyl]-4-yl)propan-2-yl)oxy)-1H-1,2,3-triazole-5-carboxylic acid], the concentration for half-maximal inhibition (IC50) (Table 3) was 0.1 to 1 µM.
With `O=C(O)c1[nH]nnc1OC1CCN(c2cc(Cl)ccc2OC(F)(F)F)CC1` [Compound 367, 4-((1-(5-chloro-2-(trifluoromethoxy)phenyl)piperidin-4-yl)oxy)-1H-1,2,3-triazole-5-carboxylic acid 2,2,2-trifluoroacetate], the IC50 (Table 2) was below 0.1 µM.
Take `O=C(O)c1[nH]nnc1O[C@H]1CC[C@@H](c2ccc(N3CCC(F)(F)CC3)cc2)CC1` [Compound 368, 4-(((cis)-4-(4-(4,4-difluoropiperidin-1-yl)phenyl)cyclohexyl)oxy)-1H-1,2,3-triazole-5-carboxylic acid 2,2,2-trifluoroacetate]: the IC50 (Table 2) is below 0.1 µM.
